Measured values as given in patent US20230105103A1, “THERAPEUTIC MOLECULES FOR COMBATING SEPSIS” (CENTRE FOR CELLULAR AND MOLECULAR PLATFORMS, priority 2019, published 2023).
Entries after “also recorded” stand apart in the source; their conditions may differ.

Experiments:
TLR2 [1] = biological target: T1, TLR2 (Homo sapiens, UniProt O60603); experiment: HEK-Blue TLR2 reporter assay (NF-kb and AP-1 driven SEAP); format: cell-based; design: host or cells: HEK293 (HEK-Blue TLR2 reporter cells)
Description: (§1) P1 fraction tested on reporter cell lines where TLR2, TLR4 or TLR3 is expressed in HEK293 cells and activation of the receptors is observed by NP-kB and AP-1 promoter driven SEAP enzyme secretion.
(§2) HEK-Blue TLR2, HEK-Blue TLR3 and HEK-Blue TLR4 reporter cells expressing SEAP (secreted embryonic alkaline phosphatase) enzyme under NF-kb and AP-1 promoter (Cat. no.# hkb-htlr2, hkb-htlr3 and hkb-htlr4) were purchased from InvivoGen (USA). Human Peripheral blood mononuclear cells (PBMCs) (Cat. no.# CL003-25) were purchased from Himedia laboratories (India). HEK based cells and PBMCs were cultured DMEM and RPMI media, respectively. The cells were maintained at 37° C. incubator with 5% CO2. The culture media was supplemented with 10% Fetal Calf Serum (Gibco) along with standard antibiotics. HEK-Blue selection antibiotics (InvivoGen, Cat. no.# hb-sel, ant-zn and ant-bl) were added as per manufacturers' instructions.
(§3) 2×10^4 HEK-Blue reporter cells were seeded, in each well of a 96 well plate, in HEK-Blue detection media (InvivoGen, Cat. no.# hb-det3) along with the 50 μg/ml of the chito-oligomers. […] The treated cells were incubated at about 37° C. for about 16 hours and absorbance (O.D.) was measured at 620 nm in either TECAN Infinite® 200 PRO or Thermo Scientific Varioskan LUX multimode reader.
Target sequence in this assay (O60603 21-784): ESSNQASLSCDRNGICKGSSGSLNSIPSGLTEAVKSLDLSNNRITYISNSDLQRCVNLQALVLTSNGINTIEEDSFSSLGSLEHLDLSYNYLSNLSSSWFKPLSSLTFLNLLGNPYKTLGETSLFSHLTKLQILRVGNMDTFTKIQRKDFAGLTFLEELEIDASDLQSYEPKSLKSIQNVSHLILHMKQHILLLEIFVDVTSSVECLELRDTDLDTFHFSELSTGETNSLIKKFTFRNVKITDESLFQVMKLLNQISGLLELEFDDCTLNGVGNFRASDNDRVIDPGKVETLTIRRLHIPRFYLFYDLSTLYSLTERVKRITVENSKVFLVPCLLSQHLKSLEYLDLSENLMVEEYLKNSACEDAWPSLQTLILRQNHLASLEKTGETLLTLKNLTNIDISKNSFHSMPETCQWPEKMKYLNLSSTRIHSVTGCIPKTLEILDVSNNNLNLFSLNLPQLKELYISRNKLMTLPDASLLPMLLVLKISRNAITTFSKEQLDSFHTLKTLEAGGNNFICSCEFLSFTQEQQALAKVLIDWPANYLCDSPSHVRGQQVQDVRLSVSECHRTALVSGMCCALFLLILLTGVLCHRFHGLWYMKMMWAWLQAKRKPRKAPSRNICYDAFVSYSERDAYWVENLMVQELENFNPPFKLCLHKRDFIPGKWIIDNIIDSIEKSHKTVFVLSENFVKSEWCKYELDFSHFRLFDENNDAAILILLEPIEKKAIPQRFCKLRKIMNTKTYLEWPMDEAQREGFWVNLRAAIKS

CLP mice = experiment: Plasma cytokine levels in CLP mice (Bio-Plex multiplex assay); format: in vivo
Experimental: (§4) The CLP study with 7-9 week old C57BL/6 or BALB/c males was conducted, at animal house facility at TheraIndx Lifesciences Pvt. Ltd. (Bangalore, India) and Institute of Life Sciences (Bhubaneswar, India) respectively, in accordance with ethical practices laid down in the CPCSEA guidelines for animal care and use (CPCSEA, 2003). The Institutional Animals Ethics Committee (IAEC) of the test facility approved the studies. The CLP was performed as described before (Rittirsch et al., 2009; Toscano et al., 2011). Sham control mice had undergone surgery with ceacal manipulations without ligation and puncture. About 500 μl saline was administered subcutaneously immediately after surgery. Tramadol (about 20 mg/kg) was injected subcutaneously for post-operative analgesia. BALB/c mice were injected with single IP close of about 500 μg GA132 (GA is the internal code which has been used by the inventors of the present invention) while C57BL/6 mice received single IP dose of about 300 μg or about 700 μg GA132 6 hours post CLP. A separate group of C57BL/6 mice received single IP dose of about 250 μg of 6-mer, 7-mer or 8-mer at either 6 hour or 24 hour post CLP. All groups except the CLP alone (control) received a single dose of standard antibiotics (amoxicillin and clavulanate) 6 hour post CLP. Control group was injected with saline solution. Total of 92 C57BL/6 and 18 BALB/c mice were used in the study.
The Mutiplex immunoassay for Human and Mouse IL-1b, IL-6, IL-10, TNF-α and MCP-1 were purchased from Bio-Rad. For human cytokines, 1×10^6 PBMCs were seeded in 24 well plate a day before and treated with 100 ng/ml LPS or 50 μg/ml GA132 for 24 hours. The culture supernatant from three independent biological replicates was collected and used for the assay without dilution. For mice cytokines, the plasma samples from mice were collected 6 or 48 hours post treatment and diluted in PBS (Phosphate Buffered Saline) in 1:2 before assay. The assay was performed as per manufacturers' method and the beads were read and analyzed in Bio-Plex® MAGRIX™ Multiplex Reader (Bio-Rad) (https://www.bio-rad.com/webroot/web/pdg/lsr/literature/10014905.pdf).

[2] = tested on: CLP model of sepsis in mice; experiment: CLP study, survival of mice treated with chito-oligomers; format: in vivo
Experimental: as §4, with “Sham control mice had undergone surgery with ceacal manipulations without ligation and puncture.” left out, “BALB/c mice were injected with single IP close of about 500 μg GA132 (GA is the internal code which has been used by the inventors of the present invention) while C57BL/6 mice received single IP dose of about 300 μg or about 700 μg GA132 6 hours post CLP.” left out
Experimental data were analyzed using GraphPad Prism 8 (GraphPad Software, Inc.). Kruskal-Wallis test and one way ANOVA test was used for analysis of cytokines and reporter assay values. Log-rank (Mantel-Cox) test was utilized for survival analysis. P-values, P<0.05 were considered statistically significant and are denoted by […] if calculated P-values were lower than P=0.05.

TLR2 [3] = biological target: T1, TLR2; details: Das et al., 2019; cited from earlier work
Target sequence in this assay (O60603 21-784, species assumed): as the sequence (O60603 21-784) above

THP-1 cells = THP-1 cells treated with P1 and Pp, cytokine secretion; format: cell-based, human
Experimental: THP-1 cells (human acute monocytic leukemia cell line) were procured from ATCC (Cat. No# ATCC® TIB-202™). The THP-1 cells were treated with the P1 and Pp to check for any pro-inflammatory activity.

TLR3 = TLR3 (Homo sapiens, UniProt O15455); details: P1 fraction, HEK293 reporter cells, FIG. 7
Description: as §1, §2, §3

IL-18 = details: monocytes, in vitro, FIG. 8
Description: Increased levels of IL-18 have also been associated with higher mortality in sepsis. In endotoxemia mice models IL-18 knockout mice show better survival than the wild type indicating a role of IL18 in disease severity (Berghe T V, 2014 Eidt M V, 2016).

[4] = tested on: septic mice in endotoxemia model; experiment: Survival in endotoxemia model (LPS injection), native protein; format: in vivo; details: treated 6 hours post LPS injection, up to ten days, group G2
Experimental: In this model, post LPS Injection (i.e., 6 hours) animals were treated with vehicle and test agents amongst different groups G1-G5 as specified in figure. G2 (LPS+DIA-1) was treated with the P1 protein while G3 and G4 were other test protein used as experimental controls.

TLR4 = biological target: T2, TLR4 (Homo sapiens, UniProt O00206); experiment: HEK-Blue TLR4 reporter assay (NF-kb and AP-1 driven SEAP); format: cell-based; details: P1 fraction, HEK293 reporter cells, FIG. 7
T2 construct: host or cells: HEK293 (HEK-Blue TLR4 reporter cells)
Description: as §1, §2, §3

[5] = tested on: septic mice in the CLP model (polymicrobial sepsis); experiment: Survival of septic mice in CLP model, native protein; format: in vivo
Experimental: About 80% of mice that received 15-35 μg of protein and about 60% mice that received 1-20 μg of protein survived even up to 16 days. More preferably, 80% of mice that received 25 μg of protein and 60% mice that received 10 μg of protein survived even up to 16 days. All the mice in the control group had died in the same duration.

[6] = tested on: mice in endotoxemia model; details: Panda et al., 2012; cited from earlier work
[7] = CLP mice, 48 hours, versus untreated group, FIG. 5D
[8] = individual CLP mice, 6 hours versus 48 hours post treatment

T2 sequence (O00206 24-839): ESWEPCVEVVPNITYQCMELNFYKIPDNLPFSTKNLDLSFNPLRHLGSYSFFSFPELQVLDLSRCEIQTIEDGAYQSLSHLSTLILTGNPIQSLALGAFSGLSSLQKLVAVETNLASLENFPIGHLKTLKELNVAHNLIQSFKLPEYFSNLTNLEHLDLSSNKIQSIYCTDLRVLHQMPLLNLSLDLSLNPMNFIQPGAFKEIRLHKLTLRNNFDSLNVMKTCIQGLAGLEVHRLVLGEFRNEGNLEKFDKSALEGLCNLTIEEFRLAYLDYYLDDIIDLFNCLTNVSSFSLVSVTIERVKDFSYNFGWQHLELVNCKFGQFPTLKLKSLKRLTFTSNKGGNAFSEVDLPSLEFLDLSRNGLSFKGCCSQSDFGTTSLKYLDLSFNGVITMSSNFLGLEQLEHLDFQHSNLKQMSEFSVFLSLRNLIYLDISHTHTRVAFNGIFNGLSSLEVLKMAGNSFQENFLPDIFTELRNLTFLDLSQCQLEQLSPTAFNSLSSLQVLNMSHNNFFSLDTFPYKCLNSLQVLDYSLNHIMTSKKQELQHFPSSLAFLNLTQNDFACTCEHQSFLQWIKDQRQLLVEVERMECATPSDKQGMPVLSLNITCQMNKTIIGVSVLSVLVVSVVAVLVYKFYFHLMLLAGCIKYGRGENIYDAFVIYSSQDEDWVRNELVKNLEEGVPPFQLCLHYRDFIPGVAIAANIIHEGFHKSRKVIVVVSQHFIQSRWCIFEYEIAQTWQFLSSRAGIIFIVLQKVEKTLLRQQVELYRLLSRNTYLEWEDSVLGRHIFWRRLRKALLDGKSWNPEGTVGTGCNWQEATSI
T2 sequence (Q9Y6Y9 17-160 partner limits assumed): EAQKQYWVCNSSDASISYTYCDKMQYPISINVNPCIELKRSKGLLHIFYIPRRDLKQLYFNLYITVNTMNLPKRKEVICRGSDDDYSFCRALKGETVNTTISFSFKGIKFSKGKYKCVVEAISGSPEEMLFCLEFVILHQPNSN

CC(=O)N[C@H]1[C@H](O[C@H]2[C@H](O)[C@@H](NC(C)=O)[C@H](O[C@H]3[C@H](O)[C@@H](NC(C)=O)[C@H](O[C@H]4[C@H](O)[C@@H](NC(C)=O)C(O)O[C@@H]4CO)O[C@@H]3CO)O[C@@H]2CO)O[C@H](CO)[C@@H](O[C@@H]2O[C@H](CO)[C@@H](O[C@@H]3O[C@H](CO)[C@@H](O[C@@H]4O[C@H](CO)[C@@H](O)[C@H](O)[C@H]4NC(C)=O)[C@H](O)[C@H]3NC(C)=O)[C@H](O)[C@H]2NC(C)=O)[C@@H]1O (stereo partly shown) [7-mer, Hepta-N-acetyl Chitoheptaose]
activity in TLR2 reporter cells compared between oligomers (TLR2 [1]; HEK-Blue TLR2 reporter cells, 50 μg/ml): significantly higher than 8-mer
plasma IL-6 levels (CLP mice; CLP mice, 6 hours post intervention, versus untreated, FIG. 5C): significant decrease
plasma IL-1b (CLP mice; [7]): significant reduction
plasma IL-10 (CLP mice; [7]): significant reduction
plasma MCP-1 (CLP mice; [7]): significant reduction
plasma TNF-α (CLP mice; [7]): significant reduction
levels of IL-1b over time (CLP mice; [8]): significant reduction
levels of MCP-1 over time (CLP mice; [8]): significant reduction
levels of TNF-α over time (CLP mice; [8]): significant reduction
survival over 7 days ([2]; C57BL/6 CLP mice, intervention at 6 hours post-surgery, about 250 μg single IP dose with antibiotics, FIG. 5A): around 90%
survival up to 7 days ([2]; C57BL/6 CLP mice, single dose at 24 hours post-surgery, FIG. 5B): 80%
mortality ([2]; single dose of 200-250 μg 6 hours and 24 hours post-CLP, till day 7, FIG. 4): significant mortality reduction

CC(=O)N[C@H]1[C@H](OC2CCCCC2)O[C@H](CO)[C@@H](O[C@@H]2O[C@H](CO)[C@@H](O)[C@H](O)[C@H]2NC(C)=O)[C@@H]1O [AVR-25]
binding affinity to TLR2 (TLR2 [3]): did not show any binding affinity

P1: Major G75 size exclusion peak of AgW from Setaria digitata, a pure glycoprotein identified as Heat Shock Protein 70 (SEQ. ID NO. 1)
alternate activation marker CLEC10A or CD301 (THP-1 cells; THP-1 cells): reduces
secretion of pro-inflammatory cytokines (THP-1 cells; THP-1 cells, FIG. 1B): highly active
secretion of IL-1b (THP-1 cells; THP-1 cells, FIG. 1C): promote secretion
secretion of IL-6 (THP-1 cells; THP-1 cells, FIG. 1C): promote secretion
secretion of IL-10 (THP-1 cells; THP-1 cells, FIG. 1C): promote secretion
secretion of MCP-1 (THP-1 cells; THP-1 cells, FIG. 1C): promote secretion
secretion of TNF-α (THP-1 cells; THP-1 cells, FIG. 1C): promote secretion
induction of cytokines (THP-1 cells; THP-1 monocytic cells, FIG. 1C): activated the THP-1 monocytic cells
activation of TLR3 (SEAP secretion) (TLR3): no activation
reduction in IL-18 transcript levels (IL-18): more than 60%
survival [4]: 66%
activation of TLR2 (SEAP secretion) (TLR2 [1]; P1 fraction, HEK293 reporter cells, FIG. 7): activates; also recorded: consistently activating
activation of TLR4 (SEAP secretion) (TLR4): activates; also recorded: consistently activating
mice survived up to 16 days ([5]; 10 μg of protein): 60%
mice survived up to 16 days ([5]; 25 μg of protein): 80%
mice survived up to 16 days ([5]; 1-20 μg of protein): about 60%
mice survived up to 16 days ([5]; 15-35 μg of protein): About 80%

chitohexaose [CHTX]
protection of mice [6]: protect mice
